Legend:
human NR1/NR2B = human NR1/NR2B (Homo sapiens (Human), UniProt Q05586+Q13224); assay: NR2B antagonist activity, Fluo-4 calcium influx in HEK293 cells; format: cell-based
Method: (§1) HEK293 cell lines stably expressing cloned human NR1/NR2B and NR1/NR2A, respectively, were established according to standard previously described methods (Hansen et al., Comb. Chem High Throughput Screen. 11:304, 2008). Activation of the NR2A or NR2B subtype of NMDA receptor with glutamate as an agonist and glycine co-agonist on these cells results in calcium influx, which can be monitored with fluorescent indicator Fluo-4.
(§2) For experiments, the cells were seeded onto poly-D-lysine-coated 96-well black plates with clear bottom (Corning) at a density of ˜50,000 cells/well. After overnight culture, the growth medium was removed from the wells and the cells were incubated at 37° C. for 60 min in Hanks buffer containing 4 μM fluo-4-AM (Invitrogen) and 0.1% bovine serum albumin (BSA). After dye-loading, the cells were washed three times with Hanks buffer and incubated for 10 min at room temperature with various concentrations of test compounds prepared in Hanks buffer with 0.1% BSA. The cell plates were placed onto FDSS pCell fluorescence reader (Hamamatsu). After 20 sec reading of background fluorescence, agonist glutamate at final 100 μM and co-agonist glycine at final 50 μM were added to the cells to activate the receptor, and the resulting fluorescence changes were recorded and quantified. Based on the changes in fluorescence intensity, the pharmacological effect of test compounds were analyzed and the IC50 values derived from a non-linear least squares fitting of the concentration-dependent response to a standard logistic equation using Prism (Graphpad, Inc): Amplitude=Max Amplitude/(1+(IC50/[antagonist])^n).

human NR1/NR2A = human NR1/NR2A (Homo sapiens (Human), UniProt Q05586+Q12879); assay: NR2A antagonist activity, Fluo-4 calcium influx in HEK293 cells; format: cell-based; details: Table 2.1, glutamate 100 μM, glycine 50 μM
Method: as §1, §2

NMDA receptor = assay: [3H] MK-801 radioligand binding, rat brain membranes; details: 2 nM [3H] MK-801
Method: (§3) This example describes NMDA receptor binding assays using two different radioligands, [^3H] […] An established binding assay using the non-selective NMDA receptor ligand [^3H] […] The binding assay method using the NR2B selective receptor ligand [^3H] […] This assay serves as a selective measure of NR2B receptor binding activity in native rat brain receptors. Briefly, the brains of Male Wistar rats were homogenized (Polytron) before centrifugation at 40,000×g for 15 minutes at 4° C. After 2 washes, the final pellet was homogenized and stored at −80° C. The protein concentration was determined by Bradford assay.
(§4) Test compounds were solubilized at 10 mM in DMSO. Then the dilutions were performed with a constant solvent concentration (1% DMSO) in the assay.
(§5) After incubation for 4.5 h at room temperature, the assays were filtered on GF/B filters pretreated with 0.3% (v/v) PEI with a Brandel system for [^3H] […] The experiment was performed in duplicate (n=2).

NR2B receptor = NR2B receptor (Rattus norvegicus (Rat), UniProt P35439+Q00960); assay: [3H] (E)-N1-(2-methoxybenzyl)-cinnamidine radioligand binding, rat brain membranes; details: for displacement of [3H] (E)-N1-(2-methoxybenzyl)-cinnamidine at the NR2B receptor high affinity site: rat brain membranes; for Ki: read-out: Ki at the NR2B receptor high affinity site
Method: as §3
[^3H] […] Thus, using [^3H]
as §4, §5

hERG channel = hERG channel (Homo sapiens (Human), UniProt Q12809); assay: hERG channel inhibition, whole cell patch clamp in HEK293 cells; format: cell-based; details: 10 μM
Method: The assay was performed on hERG channel stably expressed in HEK293 cells. The cells were cultured at 37° C. in a humidified CO2 incubator in the growth medium consisting of DMEM, 10% fetal bovine serum and antibiotics. Prior to the assay, the cells were seeded onto a 12 mm PDL-coated glass coverslip and cultured in a 35 mm Petri dish. After 16 to 40 hr culture, the cover slip was transferred into the chamber of OctaFlow perfusion system (ALA Instrument) and under a constant flow of extracellular solution (140 mM NaCl, 4 mM KCl, 1 mM MgCl2, 2 mM CaCl2, 10 mM HEPES, 10 mM D-glucose, pH 7.35, osmolarity 290). Whole cell patch clamping was performed with a glass micropipette filled with intracellular solution (120 mM KCl, 1.75 mM MgCl2, 5.4 mM CaCl2, 10 mM HEPES, 10 mM EGTA, and 4 mM ATP-K2, PH 7.2, osmolarity 310). Giga-seal was maintained during the test. The voltage control and current measurement were carried out using Axon amplifier 700B, Digidata 1440A and CLAMPEX10 software (Molecular Devices). Whole-cell hERG currents were recorded following the Petroski protocol: the cell was held at −80 mV, and the voltage step jumped from −80 to 30 mV and stay for 2 sec with a 20 ms prepulse at −40 mV. After depolarization, the voltage was decreased to −40 mV and stay for 2 sec, and returned back to −80 mV. Test compound was applied by quartz capillary tubes tip (200 μm inner diameter), and the flow rate was controlled at 2-3 ml/min with OctaFlow perfusion system. Different concentrations of the compound were applied to the cells for 5 min and the hERG current was measured three times before, during and after compound treatment. The data were analyzed using Clampfit 10 software (Molecular Devices) to generate IC50 values.

CYP2D6 = CYP2D6 (Homo sapiens (Human), UniProt P10635); assay: CYP P450 enzyme inhibition, pooled human liver microsome; format: in vitro ADME; details: 10 μM, pooled HLM, dextromethorphan 5 μM
Method: Those CYP isoforms and their corresponding probe substrates are as follows: CYP1A2 (phenacetin, 30 μM), CYP2C9 (tolutamide, 100 μM), CYP2C19 (S-mephenytoin, 40 μM), CYP2D6 (dextromethorphan, 5 μM) and CYP3A4 (midazolam, 1 μM). All probe substrates were used at concentrations near or below their Kms. For experiment, a reaction mixture of test compound at 10 μM or in serial dilution, CYP probe substrate described above and 0.2 mg/mL pooled HLM in phosphate buffer, pH 7.4 in a final volume of 200 μL was pre-incubated at 37° C. for 10 minutes in triplicate. The reaction was initiated by addition of NADPH at final concentration of 1 mM. The reaction was terminated after 10 minutes (CYP1A2, CYP2D6 and CYP3A4) or 30 minutes (CYP2C9 and CYP2C19) by addition of 100 μL ice-cold acetonitrile with internal standard (IS). The samples were then centrifuged at 13,000 rpm and the supernatants were injected to LC-MS/MS (Agilent Technologies) to quantify the concentration of the specific metabolites of the probe substrates formed by individual CYP450 isoforms. The inhibition ratio is calculated as: (Mt−M0)/Mwater×100% in which Mt and M0 represent the concentrations of the specific probe substrate metabolite, which was formed by individual CYP450 isoform, at the beginning and end of the reaction in the presence of test compound; while Mwater represents the concentration of the specific metabolite at the end of the reaction in the absence of test compound. Test compound concentration-dependent response data experiments performed in triplicate.

[1] = system: electroconvulsive threshold (tonic convulsions); assay: Electroconvulsive Threshold Test (ECT); format: in vivo, rats; details: rats, 3 and 10 mpk p.o., mesylate salt
Method: Test compound E1-8.2 was administered as the free base.
Rats were administered ECS (rectangular current: 0.6 ms pulse width, 1.5 s duration, 200 Hz) via earclip electrodes connected to a constant current shock generator (Ugo Basile: type 7801). Test compounds were administered by oral gavage (p.o.) 1 hour before the test at a dose volume of 5 mL/kg.
Treatment groups of 20 rats were exposed to ECS as follows: The first animal was exposed to 30 mA of ECS. […] (increases of 5 mA) until the first tonic convulsion was observed. Once the first tonic convulsion was observed, the intensity of ECS was decreased by 2 mA for the next animal and then decreased or increased by 2 mA from animal to animal depending on whether the previous animal convulsed or not. If the first animal did convulse (tonic convulsions) within 5 seconds, animal no2 is exposed to 25 mA, etc. . . . (decreases of 5 mA) until the absence of tonic convulsions was observed. At this point, the intensity of ECS was increased by 2 mA for the next animal and then decreased or increased by 2 mA from animal to animal depending on whether the previous animal convulsed or not. The minimum current intensity applied is 5 mA and the maximum 95 mA. The first 5 animals serve to approach threshold current and were not included in the analysis. The results are presented as the mean current intensity administered to the final 15 animals of a group. The test was performed blind. A positive percent change indicates an anticonvulsant effect. A negative percent change indicates a proconvulsant effect. The test substance was evaluated at 4 doses, typically using 0.5% dimethylsulfoxide, 4% hydroxypropyl-b-cyclodextrin water as a vehicle, and administered p.o. 60 minutes before ECS, and compared with a vehicle control group. Diazepam (16 mg/kg p.o.), administered under the same experimental conditions, was used as reference substance. The experiment included 6 groups. Data with the test substance was analyzed by comparing treated groups with vehicle control using one-way ANOVA followed by Dunnett's t tests.

[2] = system: pentylenetetrazole (PTZ) induced convulsions; assay: Pentylenetetrazole (PTZ) Seizure Test; format: in vivo; details: 10 mg/kg p.o., mesylate salt
Method: Rats, placed in individual macrolon cages (25×19×13 cm), were injected with pentylenetetrazole (PTZ) (100 mg/kg s.c.). The occurrence and latency of clonic and tonic convulsions and death were noted over a 30 minute period. 15 rats were studied per group. The test was performed blind. […]
Compounds were evaluated typically using 0.5% dimethylsulfoxide, 4% hydroxypropyl-b-cyclodextrin water as a vehicle at 1 or more doses (e.g., 1, 3 and 10 mg/kg), administered p.o. 30 minutes before PTZ, and compared with a vehicle control group. Diazepam (16 mg/kg p.o.), administered 60 minutes before PTZ, was used as reference substance. The experiment was performed over 2 separate sub-experiments with N=7 to 8 animals per group and per sub-experiment. Quantitative data (latencies) with the test substance was analyzed by comparing treated groups with vehicle control using Kruskal-Wallis test followed by Mann-Whitney U test. Quantitative data with the reference substance was analyzed using Mann-Whitney U test. Quantal data (frequencies) was analyzed by comparing treated groups with vehicle control using Fisher's Exact Probability tests (*=p<0.05; **=p<0.01; ***=p<0.001).

[3] = system: haloperidol-induced catalepsy; assay: Haloperidol-Induced Catalepsy (HIC) Model; format: in vivo; details: rats
Text: The Haloperidol-induced Catalepsy (HIC) model detects antipsychotic activity and the action of NR2B selective antagonists (Steece-Collier et al. Exp. Neurol. 163: 239, 2000) and was based on methods described by Chermat and Simon (J. Pharmacol., 6, 493-496, 1975). The capacity to induce catalepsy serves as an index of the liability of a test substance to induce extrapyramidal side-effects, in particular Parkinsonism. Antagonism of antipsychotic-induced catalepsy can thus serve to detect anti-Parkinson potential.
Rats were injected with haloperidol (1 mg/kg i.p.) and were examined for catalepsy at 30 minute intervals up to 360 minutes. Presence (+) or absence (−) of catalepsy was assessed by three procedures: 1) imposed crossing of the ipsilateral fore- and hind-limbs; 2) placing the animal in the Buddha position; 3) the tilting board, an automatic device that, 5 seconds after positioning the rat, displaces the rat from a horizontal to vertical position and back while it clings to a wire grid with its front paws. Akinesia and catalepsy were assessed depending on whether or not the animal moves before (akinesia) or during operation of the board (catalepsy).
The 4 scores were cumulated over time to give a global catalepsy score per animal. Six rats were studied per group. The test was performed blind (test substances versus vehicle). Test substances were evaluated at 1 or more doses, administered typically using 0.5% dimethylsulfoxide, 4% hydroxypropyl-b-cyclodextrin water as a vehicle p.o. 15 minutes before haloperidol (i.e. 45 minutes before the first measurement), and compared with a vehicle control group.
Amphetamine (8 mg/kg p.o.), administered 60 minutes before the test (i.e. 90 minutes before the first measurement), was used as reference substance. Data with the test substances were analyzed by comparing treated groups with vehicle control using Kruskal-Wallis Test followed by Mann-Whitney U tests at each time and for cumulated score. Data with the reference substance were analyzed using Mann-Whitney U tests.

[4] = Table 2.1, HEK293 human NR1/NR2B, glutamate 100 μM, glycine 50 μM

hERG channel, sequence (Q12809 whole entry): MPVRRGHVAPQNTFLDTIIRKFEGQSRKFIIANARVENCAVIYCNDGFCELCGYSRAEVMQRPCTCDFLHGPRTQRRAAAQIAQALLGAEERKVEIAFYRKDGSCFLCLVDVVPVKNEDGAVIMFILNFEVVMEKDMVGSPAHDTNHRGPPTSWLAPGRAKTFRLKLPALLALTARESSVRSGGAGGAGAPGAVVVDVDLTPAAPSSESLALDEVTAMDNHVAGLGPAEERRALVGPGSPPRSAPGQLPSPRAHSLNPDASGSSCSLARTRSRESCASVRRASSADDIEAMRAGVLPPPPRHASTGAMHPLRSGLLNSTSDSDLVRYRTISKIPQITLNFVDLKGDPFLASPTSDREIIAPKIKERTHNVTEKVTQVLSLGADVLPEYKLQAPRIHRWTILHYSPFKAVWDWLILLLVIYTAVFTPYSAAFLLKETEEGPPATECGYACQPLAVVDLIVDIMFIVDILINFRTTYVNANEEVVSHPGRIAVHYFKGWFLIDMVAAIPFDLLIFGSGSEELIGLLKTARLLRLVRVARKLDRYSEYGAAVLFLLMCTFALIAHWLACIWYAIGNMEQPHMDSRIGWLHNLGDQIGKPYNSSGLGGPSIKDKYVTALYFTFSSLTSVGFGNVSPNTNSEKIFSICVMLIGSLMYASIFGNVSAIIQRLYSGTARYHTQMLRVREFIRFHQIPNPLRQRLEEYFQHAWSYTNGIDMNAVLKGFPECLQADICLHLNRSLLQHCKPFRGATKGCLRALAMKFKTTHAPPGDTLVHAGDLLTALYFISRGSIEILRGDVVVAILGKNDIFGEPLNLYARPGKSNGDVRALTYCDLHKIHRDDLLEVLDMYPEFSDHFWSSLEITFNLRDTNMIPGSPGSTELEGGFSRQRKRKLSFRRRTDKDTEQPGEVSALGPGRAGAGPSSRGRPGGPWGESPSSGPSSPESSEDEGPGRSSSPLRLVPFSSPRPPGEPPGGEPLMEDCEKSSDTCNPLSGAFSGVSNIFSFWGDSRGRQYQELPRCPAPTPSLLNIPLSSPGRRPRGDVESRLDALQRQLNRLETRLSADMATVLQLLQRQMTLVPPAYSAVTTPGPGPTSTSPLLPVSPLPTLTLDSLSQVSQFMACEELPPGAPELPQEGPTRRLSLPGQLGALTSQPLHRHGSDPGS
NR2B receptor, sequence (Q00960 27-1482, other chains not shown): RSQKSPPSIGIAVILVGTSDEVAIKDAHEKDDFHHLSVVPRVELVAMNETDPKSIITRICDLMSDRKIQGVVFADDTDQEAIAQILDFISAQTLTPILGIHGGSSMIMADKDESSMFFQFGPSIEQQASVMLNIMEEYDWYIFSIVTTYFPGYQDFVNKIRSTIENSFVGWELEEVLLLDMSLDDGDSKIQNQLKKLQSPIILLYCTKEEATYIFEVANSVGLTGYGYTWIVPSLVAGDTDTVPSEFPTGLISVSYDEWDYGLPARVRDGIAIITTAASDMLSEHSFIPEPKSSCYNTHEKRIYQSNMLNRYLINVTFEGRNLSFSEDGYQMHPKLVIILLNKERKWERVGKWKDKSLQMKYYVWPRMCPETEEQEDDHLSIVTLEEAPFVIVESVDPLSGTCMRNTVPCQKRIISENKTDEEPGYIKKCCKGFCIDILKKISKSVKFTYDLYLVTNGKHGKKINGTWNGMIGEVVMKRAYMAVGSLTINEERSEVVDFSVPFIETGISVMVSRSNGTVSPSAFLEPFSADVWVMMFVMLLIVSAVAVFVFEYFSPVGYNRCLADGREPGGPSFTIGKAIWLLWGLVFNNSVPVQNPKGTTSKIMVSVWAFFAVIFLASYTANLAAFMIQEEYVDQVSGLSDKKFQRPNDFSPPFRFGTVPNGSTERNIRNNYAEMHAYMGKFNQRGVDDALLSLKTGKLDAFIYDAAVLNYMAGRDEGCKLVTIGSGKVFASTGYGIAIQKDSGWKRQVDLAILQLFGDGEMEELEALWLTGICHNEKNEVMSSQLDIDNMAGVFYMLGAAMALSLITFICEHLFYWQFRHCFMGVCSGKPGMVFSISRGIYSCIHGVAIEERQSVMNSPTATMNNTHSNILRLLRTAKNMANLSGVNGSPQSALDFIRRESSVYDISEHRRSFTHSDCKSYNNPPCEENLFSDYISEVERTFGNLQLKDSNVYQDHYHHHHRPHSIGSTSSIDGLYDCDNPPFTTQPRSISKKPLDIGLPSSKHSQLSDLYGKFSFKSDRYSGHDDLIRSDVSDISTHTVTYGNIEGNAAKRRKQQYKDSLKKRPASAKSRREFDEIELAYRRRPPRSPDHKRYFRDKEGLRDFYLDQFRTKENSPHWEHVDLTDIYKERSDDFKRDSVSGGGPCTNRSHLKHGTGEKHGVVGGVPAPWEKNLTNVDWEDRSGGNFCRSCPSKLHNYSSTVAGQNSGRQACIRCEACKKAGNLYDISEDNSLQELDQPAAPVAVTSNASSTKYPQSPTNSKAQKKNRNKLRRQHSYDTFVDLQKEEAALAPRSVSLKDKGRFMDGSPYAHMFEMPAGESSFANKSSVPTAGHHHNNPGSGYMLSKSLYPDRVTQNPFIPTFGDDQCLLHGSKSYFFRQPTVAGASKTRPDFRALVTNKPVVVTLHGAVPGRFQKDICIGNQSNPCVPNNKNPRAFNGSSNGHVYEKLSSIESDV
human NR1/NR2B, sequence (Q13224 27-1484, other chains not shown): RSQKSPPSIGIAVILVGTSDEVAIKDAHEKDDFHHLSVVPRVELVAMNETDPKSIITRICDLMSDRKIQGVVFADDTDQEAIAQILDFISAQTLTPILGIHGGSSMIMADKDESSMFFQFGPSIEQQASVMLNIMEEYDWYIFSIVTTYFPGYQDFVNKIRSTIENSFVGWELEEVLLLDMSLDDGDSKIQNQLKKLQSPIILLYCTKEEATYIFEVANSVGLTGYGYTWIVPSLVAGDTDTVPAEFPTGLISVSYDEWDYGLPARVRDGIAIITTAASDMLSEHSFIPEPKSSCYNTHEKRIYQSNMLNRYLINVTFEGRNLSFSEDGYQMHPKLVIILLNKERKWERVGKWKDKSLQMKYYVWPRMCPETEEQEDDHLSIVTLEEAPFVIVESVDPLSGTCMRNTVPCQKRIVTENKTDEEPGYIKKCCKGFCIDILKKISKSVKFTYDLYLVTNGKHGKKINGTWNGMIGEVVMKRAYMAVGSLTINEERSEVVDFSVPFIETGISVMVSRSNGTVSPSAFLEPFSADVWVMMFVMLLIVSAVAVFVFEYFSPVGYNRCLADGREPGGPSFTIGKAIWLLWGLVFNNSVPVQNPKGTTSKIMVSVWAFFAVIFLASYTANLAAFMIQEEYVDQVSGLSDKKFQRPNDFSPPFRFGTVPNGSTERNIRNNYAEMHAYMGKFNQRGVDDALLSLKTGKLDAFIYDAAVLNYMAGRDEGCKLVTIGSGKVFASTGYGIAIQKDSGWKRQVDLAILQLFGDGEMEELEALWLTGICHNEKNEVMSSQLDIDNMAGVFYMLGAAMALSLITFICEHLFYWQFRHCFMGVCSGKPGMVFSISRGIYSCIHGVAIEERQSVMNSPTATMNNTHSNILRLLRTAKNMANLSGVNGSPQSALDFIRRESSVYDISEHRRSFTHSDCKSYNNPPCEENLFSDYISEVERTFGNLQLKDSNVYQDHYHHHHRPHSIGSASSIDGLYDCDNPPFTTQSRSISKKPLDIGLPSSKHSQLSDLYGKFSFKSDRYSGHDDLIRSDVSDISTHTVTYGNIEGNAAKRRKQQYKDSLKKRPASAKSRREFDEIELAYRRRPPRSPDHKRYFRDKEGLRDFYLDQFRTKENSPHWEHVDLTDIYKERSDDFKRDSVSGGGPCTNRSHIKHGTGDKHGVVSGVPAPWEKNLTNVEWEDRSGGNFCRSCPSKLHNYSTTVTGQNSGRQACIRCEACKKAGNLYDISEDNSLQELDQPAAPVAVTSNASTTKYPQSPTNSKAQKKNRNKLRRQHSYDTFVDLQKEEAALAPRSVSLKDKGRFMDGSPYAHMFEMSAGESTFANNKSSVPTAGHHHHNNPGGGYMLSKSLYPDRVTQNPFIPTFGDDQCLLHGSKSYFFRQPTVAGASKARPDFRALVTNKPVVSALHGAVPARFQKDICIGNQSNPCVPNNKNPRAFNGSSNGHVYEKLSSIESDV
CYP2D6, sequence (P10635 whole entry): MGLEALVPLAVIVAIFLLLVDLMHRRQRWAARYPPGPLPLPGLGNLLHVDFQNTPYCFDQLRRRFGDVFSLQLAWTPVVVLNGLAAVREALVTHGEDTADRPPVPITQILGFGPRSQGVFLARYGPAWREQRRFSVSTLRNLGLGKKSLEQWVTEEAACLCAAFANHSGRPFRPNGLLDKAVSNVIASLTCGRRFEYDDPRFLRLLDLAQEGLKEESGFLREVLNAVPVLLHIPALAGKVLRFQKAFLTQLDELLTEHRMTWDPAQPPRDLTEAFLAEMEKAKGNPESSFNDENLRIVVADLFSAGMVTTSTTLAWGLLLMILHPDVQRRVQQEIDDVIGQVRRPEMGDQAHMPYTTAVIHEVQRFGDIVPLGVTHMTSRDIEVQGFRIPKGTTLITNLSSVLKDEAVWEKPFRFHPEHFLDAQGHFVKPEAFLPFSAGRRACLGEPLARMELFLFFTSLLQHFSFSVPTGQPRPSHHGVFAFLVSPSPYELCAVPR

Structure (SMILES): O=C(OCc1ccc(Cl)cc1)N1CC[C@H](CNc2nccn3cnnc23)C(F)(F)C1 [Compound E1-1.3, R-4-chlorobenzyl 4-(([1,2,4]triazolo[4,3-a]pyrazin-8-ylamino)methyl)-3,3-difluoropiperidine-1-carboxylate]
- IC50 (human NR1/NR2B; [4]): 14.8 nM
- IC50 (human NR1/NR2B; Table 2.2): 14.8 nM
- IC50 (human NR1/NR2B; Table 2.3): 14.8 nM
- IC50 (human NR1/NR2A): > 10 µM
- partial effect on [3H] MK-801 binding (NMDA receptor): 41%
- displacement of [3H] (E)-N1-(2-methoxybenzyl)-cinnamidine at the NR2B receptor high affinity site (NR2B receptor): 97%
- Ki (NR2B receptor): 2.34 nM
- hERG @ 10 μM (%) (hERG channel): 19%
- CYP2D6 @ 10 μM (%) (CYP2D6): 37%

Structure (SMILES): O=C(OCc1ccc(F)cc1)N1CC[C@H](CNc2nccn3cnnc23)C(F)(F)C1 [Compound E1-1.4, R-4-fluorobenzyl 4-(([1,2,4]triazolo[4,3-a]pyrazin-8-ylamino)methyl)-3,3-difluoropiperidine-1-carboxylate]
- IC50 (human NR1/NR2B; [4]): 20.5 nM
- IC50 (human NR1/NR2B; Table 2.2): 20.5 nM
- IC50 (human NR1/NR2B; Table 2.3): 20.5 nM
- IC50 (human NR1/NR2A): > 10 µM
- partial effect on [3H] MK-801 binding (NMDA receptor): 32%
- displacement of [3H] (E)-N1-(2-methoxybenzyl)-cinnamidine at the NR2B receptor high affinity site (NR2B receptor): 98%
- Ki (NR2B receptor): 18.2 nM
- hERG @ 10 μM (%) (hERG channel): 11%
- CYP2D6 @ 10 μM (%) (CYP2D6): 19%

Structure (SMILES): Cc1ccc(COC(=O)N2CC[C@H](CNc3cnccn3)C(F)(F)C2)cc1 [Compound E1-21.2, R-4-methylbenzyl 3,3-difluoro-4-((pyrazin-2-ylamino)methyl)piperidine-1-carboxylate]
- IC50 (human NR1/NR2B; [4]): 14.4 nM
- IC50 (human NR1/NR2B; Table 2.2): 14.4 nM
- IC50 (human NR1/NR2B; Table 2.3): 14.4 nM
- IC50 (human NR1/NR2A): > 10 µM
- partial effect on [3H] MK-801 binding (NMDA receptor): 49%
- displacement of [3H] (E)-N1-(2-methoxybenzyl)-cinnamidine at the NR2B receptor high affinity site (NR2B receptor): 98%
- hERG @ 10 μM (%) (hERG channel): 27%
- CYP2D6 @ 10 μM (%) (CYP2D6): 97%

Structure (SMILES): Cc1ccc(COC(=O)N2CC[C@H](CNc3cnc(C)cn3)C(F)(F)C2)cc1 [Compound E1-21.26, R-4-methylbenzyl 3,3-difluoro-4-((5-methylpyrazin-2-ylamino)-methyl)piperidine-1-carboxylate]
- IC50 (human NR1/NR2B; [4]): 38.7 nM
- IC50 (human NR1/NR2B; Table 2.2): 38.7 nM
- IC50 (human NR1/NR2B; Table 2.3): 38.7 nM
- IC50 (human NR1/NR2A): > 10 µM
- partial effect on [3H] MK-801 binding (NMDA receptor): 41%
- displacement of [3H] (E)-N1-(2-methoxybenzyl)-cinnamidine at the NR2B receptor high affinity site (NR2B receptor): 99%
- hERG @ 10 μM (%) (hERG channel): 39%
- CYP2D6 @ 10 μM (%) (CYP2D6): 32%
- electroconvulsive threshold, pro-/anticonvulsant activity [1]: anticonvulsant activity
- number of rats showing tonic convulsions, change vs vehicle controls [2]: −82%
- latency to clonic convulsions, change vs vehicle controls ([2]; rats): +45%
- latency to death, change vs vehicle controls ([2]; rats): +31%
- latency to tonic convulsions, change vs vehicle controls ([2]; rats): +40%
- number of deaths, change vs vehicle controls ([2]; rats): −82%
- cumulated score of catalepsy over 360 mins ([3]; 3 mg/kg p.o.): 11.7
- cumulated score of catalepsy over 360 mins ([3]; 10 mg/kg p.o.): 1.0

Source: patent US10294230B2, “3,3-difluoropiperidine carbamate heterocyclic compounds as NR2B NMDA receptor antagonists” (Rugen Holdings (Cayman) Limited, priority 2015, dated 2019)
